Results as given in US20180057507A1, “INHIBITORS OF DUAL LEUCINE ZIPPER (DLK) KINASE FOR THE TREATMENT OF DISEASE” (Board of Regents, The University of Texas System, priority 2016, published 2018).

Legend:
human DLK [1] = target: T1, human DLK (Homo sapiens, UniProt Q12852); assay: Phospho-cJun Cellular Assay; type: cell-based; parameters: expressed in transfected cells; settings: HEK293 cells stably transfected with Dox-inducible human DLK; p-cJun (Ser63); 5 h compound incubation
T1 sequence (Q12852 1-859): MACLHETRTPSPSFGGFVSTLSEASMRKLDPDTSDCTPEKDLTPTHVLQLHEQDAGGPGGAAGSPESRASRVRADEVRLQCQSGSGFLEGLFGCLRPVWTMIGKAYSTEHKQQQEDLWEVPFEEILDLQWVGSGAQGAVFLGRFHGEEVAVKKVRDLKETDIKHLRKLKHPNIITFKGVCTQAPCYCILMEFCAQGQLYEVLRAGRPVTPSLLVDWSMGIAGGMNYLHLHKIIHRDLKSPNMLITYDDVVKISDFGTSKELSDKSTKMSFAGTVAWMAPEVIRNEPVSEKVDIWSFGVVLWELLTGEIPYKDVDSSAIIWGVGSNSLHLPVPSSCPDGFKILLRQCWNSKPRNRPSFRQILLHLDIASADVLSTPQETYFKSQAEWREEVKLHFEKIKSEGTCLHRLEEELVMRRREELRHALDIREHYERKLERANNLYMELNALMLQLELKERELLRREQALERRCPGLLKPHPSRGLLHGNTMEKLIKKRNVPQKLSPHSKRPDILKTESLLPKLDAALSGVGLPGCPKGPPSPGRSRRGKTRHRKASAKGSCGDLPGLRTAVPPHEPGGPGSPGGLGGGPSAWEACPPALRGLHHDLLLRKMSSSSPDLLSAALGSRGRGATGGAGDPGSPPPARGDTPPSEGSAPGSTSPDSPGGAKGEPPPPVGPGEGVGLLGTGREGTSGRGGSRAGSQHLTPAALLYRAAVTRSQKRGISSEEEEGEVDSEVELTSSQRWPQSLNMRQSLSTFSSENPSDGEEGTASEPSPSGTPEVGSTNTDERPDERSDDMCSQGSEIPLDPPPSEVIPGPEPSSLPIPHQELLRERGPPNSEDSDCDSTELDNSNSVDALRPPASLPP
Method: Phospho-cJun Cellular Assay
HEK293 cells stably transfected with a Dox-inducible human DLK were plated into a 384-well plate in 20 μl (40,000 cells/well) of DMEM medium (without phenol red) containing 10% fetal bovine serum, 1.5 μg/ml doxycycline and 1 μg/ml puromycin. The cells as negative control were grown in the absence of doxycycline. The plate was incubated at 37° C., 5% CO2 for 20 h, before DMSO (control) or compounds diluted in medium were added. The cells were incubated at 37° C. for an additional 5 h, followed by lysis and the addition detection antibodies from p-cJun (Ser63) cellular assay kit (Cisbio) per manufacturer protocol. The standard dose response curves were fitted by Genedata Screener software using the variable-slope model: Signal=Signalnegative control+(SignalDMSO control−Signalnegative control)/(1+(IC50/Dose)̂Hill slope). Only signal and dose in the equation were treated as known values.

human DLK [2] = target: T1, human DLK; assay: DLK Kd Determinations (KINOMEscan KdELECT, DiscoveRx); parameters: full length of human DLK (amino acids 1-859); host or cells: transiently transfected HEK293 cells; unpurified extract; settings: fusion protein of full length human DLK (amino acids 1-859) and NFkB DNA binding domain; qPCR readout; duplicate
Outline: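 Kd values were fitted by Hill equation (slope −1) from duplicate 11-point 3-fold dilutions starting at 30,000 nM. Bead-immobilized ligand competed with compound for DNA-tagged full-length human DLK fusion in HEK293 extract (final DMSO 0.9%, 1 h, room temperature), with qPCR readout of bound kinase.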

IC50 (human DLK [1]) [nM] | Kd (human DLK [2]) [nM] | SMILES
994 | 26 | CN1CCN(C2C[C@@H]3[C@H](C2)[C@H]3n2cc(-c3cnc(N)c(OC(F)(F)F)c3)nc2CC2CC2)CC1 (single isomer, unassigned) [Example 151a, 5-(2-(cyclopropylmethyl)-1-(3-(4-methylpiperazin-1-yl)bicyclo[3.1.0]hexan-6-yl)-1H-imidazol-4-yl)-3-(trifluoromethoxy)pyridin-2-amine]
574 | 37 | Nc1ncc(-c2cn([C@H]3[C@@H]4CC(N5CCCOCC5)C[C@@H]43)c(C3CC3)n2)cc1OC(F)(F)F (stereo partly drawn) [Example 149, 5-(1-(3-(1,4-oxazepan-4-yl)bicyclo[3.1.0]hexan-6-yl)-2-cyclopropyl-1H-imidazol-4-yl)-3-(trifluoromethoxy)pyridin-2-amine]
483 | 38 | Nc1ncc(-c2cn(C3CC4(CC(N5CCOCC5)C4)C3)c(C3CC3)n2)cc1OC(F)(F)F (stereo not drawn) [Example 41, 5-(2-cyclopropyl-1-(6-morpholinospiro[3.3]heptan-2-yl)-1H-imidazol-4-yl)-3-(trifluoromethoxy)pyridin-2-amine]
1200 | 39 | CC(C)c1nc(-c2cnc(N)c(OC(F)F)c2)cn1[C@H]1[C@@H]2CC(N3CCN(C)CC3)C[C@@H]21 (single isomer, unassigned) [Example 145a, 3-(difluoromethoxy)-5-(2-isopropyl-1-(3-(4-methylpiperazin-1-yl)bicyclo[3.1.0]hexan-6-yl)-1H-imidazol-4-yl)pyridin-2-amine]
804 | 120 | CC(C)c1nc(-c2cnc(N)c(OC(F)(F)F)c2)cn1[C@H]1C[C@H](N2CCOCC2)C1 [Example 43, 5-(2-isopropyl-1-((1r,3r)-3-morpholinocyclobutyl)-1H-imidazol-4-yl)-3-(trifluoromethoxy)pyridin-2-amine]
745 | 77 | COCCN1C[C@@H]2[C@H](C1)[C@H]2n1cc(-c2cnc(N)c(OC(F)(F)F)c2)nc1C1CC1 [Example 68, 5-(2-cyclopropyl-1-((1R,5S,6s)-3-(2-methoxyethyl)-3-azabicyclo[3.1.0]hexan-6-yl)-1H-imidazol-4-yl)-3-(trifluoromethoxy)pyridin-2-amine]
1510 | 19 | CC(C)c1nc(-c2cnc(N)c(C(F)(F)F)c2)cn1[C@H]1[C@@H]2CC(N3CCOC[C@@H]3C)C[C@@H]21 (stereo partly drawn) [Example 143, 5-(2-isopropyl-1-(3-((S)-3-methylmorpholino)bicyclo[3.1.0]hexan-6-yl)-1H-imidazol-4-yl)-3-(trifluoromethyl)pyridin-2-amine]
1240 | 59 | CC(C)c1nc(-c2cnc(N)c(C(F)(F)F)c2)cn1[C@H]1[C@@H]2CC(O)C[C@@H]21 (single isomer, unassigned) [Example 48b, 6-(4-(6-amino-5-(trifluoromethyl)pyridin-3-yl)-2-isopropyl-1H-imidazol-1-yl)bicyclo[3.1.0]hexan-3-ol]
987 | 48 | COCCN1C[C@@H]2[C@H](C1)[C@H]2n1cc(-c2cnc(N)c(OC(F)F)c2)nc1CC1CC1 [Example 117, 5-(2-(cyclopropylmethyl)-1-((1R,5S,6s)-3-(2-methoxyethyl)-3-azabicyclo[3.1.0]hexan-6-yl)-1H-imidazol-4-yl)-3-(difluoromethoxy)pyridin-2-amine]
2440 | 45 | Nc1ncc(-c2cn([C@H]3[C@@H]4CN(CCF)C[C@@H]43)c(C3CC3)n2)cc1OC(F)(F)F [Example 69, 5-(2-cyclopropyl-1-((1R,5S,6s)-3-(2-fluoroethyl)-3-azabicyclo[3.1.0]hexan-6-yl)-1H-imidazol-4-yl)-3-(trifluoromethoxy)pyridin-2-amine]
636 | 37.5 | C[C@H]1COCCN1C1C[C@@H]2[C@H](C1)[C@H]2n1cc(-c2cnc(N)c(C(F)(F)F)c2)nc1C1CC1 (single isomer, unassigned) [Example 140b]
594 | 60 | CC(C)(C)Cc1nc(-c2cnc(N)c(C(F)(F)F)c2)cn1[C@H]1[C@@H]2CN(CCF)C[C@@H]21 [Example 85, 5-(1-((1R,5S,6s)-3-(2-fluoroethyl)-3-azabicyclo[3.1.0]hexan-6-yl)-2-neopentyl-1H-imidazol-4-yl)-3-(trifluoromethyl)pyridin-2-amine]
544 | 37 | Nc1ncc(-c2cn([C@H]3[C@@H]4CC(N5CCOCC5)C[C@@H]43)c(C3CC3)n2)cc1OC(F)(F)F (single isomer, unassigned) [Example 139a, 5-(2-cyclopropyl-1-(3-morpholinobicyclo[3.1.0]hexan-6-yl)-1H-imidazol-4-yl)-3-(trifluoromethoxy)pyridin-2-amine]
893 | 23 | CC1COCCN1C1CC2C(C1)C2n1cc(-c2cnc(N)c(OC(F)(F)F)c2)nc1C1CC1 (stereo not drawn) [Example 147, 5-(2-cyclopropyl-1-(3-(3-methylmorpholino)bicyclo[3.1.0]hexan-6-yl)-1H-imidazol-4-yl)-3-(trifluoromethoxy)pyridin-2-amine]
1010 | 23 | Nc1ncc(-c2cn([C@H]3[C@@H]4CC(N5CCOCC5)C[C@@H]43)c(CC3CC3)n2)cc1C(F)(F)F (single isomer, unassigned) [Example 138a, 5-(2-(cyclopropylmethyl)-1-(3-morpholinobicyclo[3.1.0]hexan-6-yl)-1H-imidazol-4-yl)-3-(trifluoromethyl)pyridin-2-amine]
710 | 22 | CC1COCCN1C1C[C@@H]2[C@H](C1)[C@H]2n1cc(-c2cnc(N)c(OC(F)(F)F)c2)nc1C1CC1 (stereo partly drawn) [Example 148, 5-(2-cyclopropyl-1-(3-(3-methylmorpholino)bicyclo[3.1.0]hexan-6-yl)-1H-imidazol-4-yl)-3-(trifluoromethoxy)pyridin-2-amine]
802 | 57 | Nc1ncc(-c2cn([C@H]3[C@@H]4CNC[C@@H]43)c(C3CC3)n2)cc1OC(F)(F)F [Example 53, 5-(1-((1R,5S,6s)-3-azabicyclo[3.1.0]hexan-6-yl)-2-cyclopropyl-1H-imidazol-4-yl)-3-(trifluoromethoxy)pyridin-2-amine]
781 | 64 | COCCN1C[C@@H]2[C@H](C1)[C@H]2n1cc(-c2cnc(N)c(C(F)(F)F)c2)nc1CC1CC1 [Example 78, 5-(2-(cyclopropylmethyl)-1-((1R,5S,6s)-3-(2-methoxyethyl)-3-azabicyclo[3.1.0]hexan-6-yl)-1H-imidazol-4-yl)-3-(trifluoromethyl)pyridin-2-amine]
994 | 71 | Nc1ncc(-c2cn([C@H]3[C@@H]4CN(C5CCOCC5)C[C@@H]43)c(CC3CC3)n2)cc1OC(F)F [Example 88, 5-(2-(cyclopropylmethyl)-1-((1R,5S,6s)-3-(tetrahydro-2H-pyran-4-yl)-3-azabicyclo[3.1.0]hexan-6-yl)-1H-imidazol-4-yl)-3-(difluoromethoxy)pyridin-2-amine]
827 | 22 | CC(C)c1nc(-c2cnc(N)c(OC(F)(F)F)c2)cn1[C@H]1[C@@H]2CC(N3CCOC[C@@H]3C)C[C@@H]21 (single isomer, unassigned) [Example 157b]
755 | 22 | Nc1ncc(-c2cn([C@H]3[C@@H]4CC(N5CCOCC5)C[C@@H]43)c(C3CC3)n2)cc1C(F)(F)F (single isomer, unassigned) [Example 128b, 5-(2-cyclopropyl-1-(3-morpholinobicyclo[3.1.0]hexan-6-yl)-1H-imidazol-4-yl)-3-(trifluoromethyl)pyridin-2-amine]
